Data: article PMC11671526, “β-caryophyllene sensitizes hepatocellular carcinoma cells to chemotherapeutics and inhibits cell malignancy through targeting MAPK signaling pathway” (Frontiers in Pharmacology, 2024)

Tested on: HepG2 cells
Assay: RNA-seq transcriptome analysis of differentially expressed genes
Type: cell-based, human
Conditions: BCP vs control HepG2
Method: The quality and concentration of RNA were examined by MOPS RNA electrophoresis and Eppendorf BioSpectrometer. The transcriptome analysis was performed by BGI-Wuhan China. The RNA-seq dataset of this study is accessible in the Gene Expression Omnibus (GEO) with an access number of GSE276099. The sequence library for each sample was prepared using the BGISEQ-500 platform with a 50-bp single-end (SE50) format. […]2.2.1) was used to align the clean reads to the reference genome and alignment of the clean reads to the reference genes was carried out using Bowtie2 (v2.4.5) ([Langmead and Salzberg, 2012]; [Kim et al., 2015]). Gene expression levels were calculated by RSEM (v1.3.1) ([Li and Dewey, 2011]). Analysis of differential gene expression was performed using edgeR in the Bioconductor software package ([Robinson et al., 2010]). Using a standard protocol, the RNA samples were also examined by reverse transcription and quantitative polymerase chain reaction (RT-qPCR). In brief, for reverse transcription, total RNA (1 μg) and gDNA wiper Mix were incubated at 42°C for 2 min. The samples were immediately incubated with a master mix containing 10 pmol/μL of poly (dT) primers at 37°C for 15 min and 85°C for 5 s. To detect the expression of specific genes by qPCR analysis, gene-specific primers (shown in Supplementary Table S1) were mixed with the ChamQ Universal SYBER qPCR Master Mix and the reaction was conducted using the Roche Lightcycler 480. The GAPDH value was used to normalize the results of each gene. The RNA-seq data of BCP-treated HepG2 cells were screened for DEGs. Gene symbols were turned into Enterz ID using the org.Hs.eg.db Bio-conductor R package. The cluster profiler (v4.6.2) package was used to perform the Kyoto Encyclopedia of Genes and Genomes (KEGG) and Gene Ontology (GO) enrichment analyses ([Wu et al., 2021]). Following the Transcript per million (TPM) data of the dataset, the line chart, and heatmap were plotted using ggplot2 and pheatmap R packages, respectively.

C=C1CC/C=C(\C)CC[C@@H]2[C@@H]1CC2(C)C [BCP, β-caryophyllene]
change RAPGEF3 (gene RAPGEF3, DEG direction): Down
logFC RARRES2 (gene RARRES2, RNA-seq): -0.9419
change RARRES2 (gene RARRES2, DEG direction): Down
logFC RASSF5 (gene RASSF5, RNA-seq): -1.261
change RASSF5 (gene RASSF5, DEG direction): Down
logFC RETREG1 (gene RETREG1, RNA-seq): 0.6811
change RETREG1 (gene RETREG1, DEG direction): Up
logFC RHOB (gene RHOB, RNA-seq): 0.8378
change RHOB (gene RHOB, DEG direction): Up
logFC RHOBTB1 (gene RHOBTB1, RNA-seq): 0.6316
change RHOBTB1 (gene RHOBTB1, DEG direction): Up
logFC RILPL2 (gene RILPL2, RNA-seq): -0.6633
change RILPL2 (gene RILPL2, DEG direction): Down
logFC RNASE4 (gene RNASE4, RNA-seq): -1.067
change RNASE4 (gene RNASE4, DEG direction): Down
logFC RNF182 (gene RNF182, RNA-seq): 0.812
change RNF182 (gene RNF182, DEG direction): Up
logFC RNF208 (gene RNF208, RNA-seq): -0.8526
change RNF208 (gene RNF208, DEG direction): Down
logFC RSPO3 (gene RSPO3, RNA-seq): 1.091
change RSPO3 (gene RSPO3, DEG direction): Up
logFC RUNDC3B (gene RUNDC3B, RNA-seq): -1.157
change RUNDC3B (gene RUNDC3B, DEG direction): Down
logFC S100A3 (gene S100A3, RNA-seq): -0.7971
change S100A3 (gene S100A3, DEG direction): Down
logFC S100A4 (gene S100A4, RNA-seq): -0.5965
change S100A4 (gene S100A4, DEG direction): Down
logFC SCIN (gene SCIN, RNA-seq): -0.6372
change SCIN (gene SCIN, DEG direction): Down
logFC SDCCAG8 (gene SDCCAG8, RNA-seq): 0.7756
change SDCCAG8 (gene SDCCAG8, DEG direction): Up
logFC SEL1L (gene SEL1L, RNA-seq): 0.5873
change SEL1L (gene SEL1L, DEG direction): Up
logFC SELENOP (gene SELENOP, RNA-seq): 0.7184
change SELENOP (gene SELENOP, DEG direction): Up
logFC SEMA5A (gene SEMA5A, RNA-seq): 1.3518
change SEMA5A (gene SEMA5A, DEG direction): Up
logFC SIK2 (gene SIK2, RNA-seq): 0.6807
change SIK2 (gene SIK2, DEG direction): Up
logFC SLC5A3 (gene SLC5A3, RNA-seq): -0.7077
change SLC5A3 (gene SLC5A3, DEG direction): Down
logFC SLC9B2 (gene SLC9B2, RNA-seq): -0.6372
change SLC9B2 (gene SLC9B2, DEG direction): Down
logFC SLC16A6 (gene SLC16A6, RNA-seq): 1.033
change SLC16A6 (gene SLC16A6, DEG direction): Up
logFC SLC52A3 (gene SLC52A3, RNA-seq): -2.872
change SLC52A3 (gene SLC52A3, DEG direction): Down
logFC SLCO4A1 (gene SLCO4A1, RNA-seq): -0.7226
change SLCO4A1 (gene SLCO4A1, DEG direction): Down
logFC SLFN5 (gene SLFN5, RNA-seq): 0.8058
change SLFN5 (gene SLFN5, DEG direction): Up
logFC SLPI (gene SLPI, RNA-seq): -0.5978
change SLPI (gene SLPI, DEG direction): Down
logFC SNED1 (gene SNED1, RNA-seq): 0.7039
change SNED1 (gene SNED1, DEG direction): Up
logFC SNTB1 (gene SNTB1, RNA-seq): 0.7574
change SNTB1 (gene SNTB1, DEG direction): Up
logFC SORBS2 (gene SORBS2, RNA-seq): 0.9049
change SORBS2 (gene SORBS2, DEG direction): Up
logFC SPAG16 (gene SPAG16, RNA-seq): 0.7042
change SPAG16 (gene SPAG16, DEG direction): Up
logFC SPRY4 (gene SPRY4, RNA-seq): -0.9938
change SPRY4 (gene SPRY4, DEG direction): Down
logFC ST6GALNAC6 (gene ST6GALNAC6, RNA-seq): -0.6732
change ST6GALNAC6 (gene ST6GALNAC6, DEG direction): Down
logFC STARD10 (gene STARD10, RNA-seq): -0.7468
change STARD10 (gene STARD10, DEG direction): Down
logFC SULT1A4 (gene SULT1A4, RNA-seq): -0.8677
change SULT1A4 (gene SULT1A4, DEG direction): Down
logFC SV2B (gene SV2B, RNA-seq): 1.269
change SV2B (gene SV2B, DEG direction): Up
logFC SYN3 (gene SYN3, RNA-seq): -1.293
change SYN3 (gene SYN3, DEG direction): Down
logFC TAGLN (gene TAGLN, RNA-seq): 1.297
change TAGLN (gene TAGLN, DEG direction): Up
logFC TBC1D2 (gene TBC1D2, RNA-seq): 0.6507
change TBC1D2 (gene TBC1D2, DEG direction): Up
logFC TBC1D17 (gene TBC1D17, RNA-seq): -0.5911
change TBC1D17 (gene TBC1D17, DEG direction): Down
logFC TCIM (gene TCIM, RNA-seq): 0.8634
change TCIM (gene TCIM, DEG direction): Up
logFC TCN1 (gene TCN1, RNA-seq): -1.416
change TCN1 (gene TCN1, DEG direction): Down
logFC TEK (gene TEK, RNA-seq): -1.317
change TEK (gene TEK, DEG direction): Down
logFC TGFB3 (gene TGFB3, RNA-seq): -0.7747
change TGFB3 (gene TGFB3, DEG direction): Down
logFC TIMP3 (gene TIMP3, RNA-seq): -1.01
change TIMP3 (gene TIMP3, DEG direction): Down
logFC TLR4 (gene TLR4, RNA-seq): -0.8506
change TLR4 (gene TLR4, DEG direction): Down
logFC TM4SF1 (gene TM4SF1, RNA-seq): 0.7666
change TM4SF1 (gene TM4SF1, DEG direction): Up
logFC TMEM120B (gene TMEM120B, RNA-seq): -0.6536
change TMEM120B (gene TMEM120B, DEG direction): Down
logFC TNFSF15 (gene TNFSF15, RNA-seq): -1.596
change TNFSF15 (gene TNFSF15, DEG direction): Down
logFC TNXB (gene TNXB, RNA-seq): -0.7488
change TNXB (gene TNXB, DEG direction): Down
logFC TPBG (gene TPBG, RNA-seq): -0.9203
change TPBG (gene TPBG, DEG direction): Down
logFC TRNP1 (gene TRNP1, RNA-seq): -0.8357
change TRNP1 (gene TRNP1, DEG direction): Down
logFC USH1C (gene USH1C, RNA-seq): 0.9916
change USH1C (gene USH1C, DEG direction): Up
logFC VAMP1 (gene VAMP1, RNA-seq): -0.8271
change VAMP1 (gene VAMP1, DEG direction): Down
logFC VSIR (gene VSIR, RNA-seq): -0.6272
change VSIR (gene VSIR, DEG direction): Down
logFC XYLT1 (gene XYLT1, RNA-seq): 1.184
change XYLT1 (gene XYLT1, DEG direction): Up
logFC ZBED6CL (gene ZBED6CL, RNA-seq): -0.9925
change ZBED6CL (gene ZBED6CL, DEG direction): Down
logFC ZNF365 (gene ZNF365, RNA-seq): -1.468
change ZNF365 (gene ZNF365, DEG direction): Down
logFC ZRANB3 (gene ZRANB3, RNA-seq): 1.008
change ZRANB3 (gene ZRANB3, DEG direction): Up
